Values after ≈ are worked out from the molar mass of the structure shown. Active and inactive are the calls of the source. The rule behind the calls is not given here.
Experiments:
[1] = test system: Heart; experiment: Toxicity in isolated rabbit heart model assessed as adverse side effect upto 1.0 uM; assay type: tissue-based, Oryctolagus cuniculus; settings: ex_vivo
[2] = molecular target: Voltage-gated inwardly rectifying potassium channel KCNH2 (Homo sapiens, UniProt Q12809); experiment: Displacement of [3H]dofetilide from human ERG expressed in HEK293 cell membranes
Chain of Voltage-gated inwardly rectifying potassium channel KCNH2 (Q12809 whole entry): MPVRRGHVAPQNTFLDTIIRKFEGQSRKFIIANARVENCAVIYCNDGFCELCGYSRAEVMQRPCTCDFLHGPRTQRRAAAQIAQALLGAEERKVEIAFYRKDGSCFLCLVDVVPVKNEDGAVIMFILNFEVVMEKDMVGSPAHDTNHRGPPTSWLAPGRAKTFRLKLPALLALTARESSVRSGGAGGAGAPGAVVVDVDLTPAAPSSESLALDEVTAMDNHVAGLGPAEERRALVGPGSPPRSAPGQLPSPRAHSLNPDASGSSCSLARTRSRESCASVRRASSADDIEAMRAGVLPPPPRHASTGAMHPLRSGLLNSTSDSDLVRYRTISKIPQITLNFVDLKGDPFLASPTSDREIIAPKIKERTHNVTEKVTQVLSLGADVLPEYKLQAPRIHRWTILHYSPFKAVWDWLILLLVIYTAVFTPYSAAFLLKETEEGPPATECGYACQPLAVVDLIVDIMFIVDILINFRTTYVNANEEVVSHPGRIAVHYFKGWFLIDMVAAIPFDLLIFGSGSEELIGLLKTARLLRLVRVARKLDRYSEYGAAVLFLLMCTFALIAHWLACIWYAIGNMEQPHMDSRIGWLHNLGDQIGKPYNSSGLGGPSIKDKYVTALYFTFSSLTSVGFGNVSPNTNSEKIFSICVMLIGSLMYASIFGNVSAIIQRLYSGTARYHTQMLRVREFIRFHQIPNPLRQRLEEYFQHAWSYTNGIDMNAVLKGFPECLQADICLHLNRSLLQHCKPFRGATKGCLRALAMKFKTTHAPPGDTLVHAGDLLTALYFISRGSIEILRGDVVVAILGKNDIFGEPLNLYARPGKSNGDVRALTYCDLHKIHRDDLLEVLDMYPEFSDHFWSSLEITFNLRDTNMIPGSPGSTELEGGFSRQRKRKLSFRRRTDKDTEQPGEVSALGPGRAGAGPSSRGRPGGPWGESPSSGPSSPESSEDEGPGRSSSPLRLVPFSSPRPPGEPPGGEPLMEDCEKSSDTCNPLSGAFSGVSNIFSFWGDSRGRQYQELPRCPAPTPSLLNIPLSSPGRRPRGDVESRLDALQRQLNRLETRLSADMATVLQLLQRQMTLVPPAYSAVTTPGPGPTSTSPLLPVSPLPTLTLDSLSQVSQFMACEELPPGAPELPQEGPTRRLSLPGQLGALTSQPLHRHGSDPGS

[3] = test system: Heart; experiment: Toxicity in isolated rabbit heart model assessed as adverse side effect upto 1.5 uM; assay type: tissue-based, Oryctolagus cuniculus
[4] = test system: Heart; experiment: Toxicity in isolated rabbit heart model assessed as adverse side effect upto 5.0 uM; assay type: tissue-based, Oryctolagus cuniculus
[5] = molecular target: T1, C-C chemokine receptor type 5 (Homo sapiens, UniProt P51681); experiment: Displacement of [125I]RANTES from human CCR5 expressed in CHO cells; assay type: cell-based
T1 sequence (P51681 whole entry): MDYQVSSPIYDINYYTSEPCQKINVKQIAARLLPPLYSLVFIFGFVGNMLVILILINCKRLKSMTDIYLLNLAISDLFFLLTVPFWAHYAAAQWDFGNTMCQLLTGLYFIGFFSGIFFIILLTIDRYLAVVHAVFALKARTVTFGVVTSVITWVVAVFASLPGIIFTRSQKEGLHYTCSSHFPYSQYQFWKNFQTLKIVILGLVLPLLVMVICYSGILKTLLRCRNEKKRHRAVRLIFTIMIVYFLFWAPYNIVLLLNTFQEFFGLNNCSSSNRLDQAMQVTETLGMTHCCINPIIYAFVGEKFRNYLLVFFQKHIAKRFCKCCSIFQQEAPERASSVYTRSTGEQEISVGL

[6] = molecular target: T2, C-C chemokine receptor type 5 (Macaca fascicularis, UniProt P61814); experiment: Displacement of radiolabeled MIP-1alpha from cynomolgus monkey CCR5 expressed in CHO cells; assay type: cell-based
[7] = test system: Heart; experiment: Toxicity in isolated rabbit heart model assessed as adverse side effect upto 0.5 uM; assay type: tissue-based, Oryctolagus cuniculus; settings: ex_vivo
[8] = test system: Heart; experiment: Toxicity in isolated rabbit heart model assessed as adverse side effect upto 10 uM; assay type: tissue-based, Oryctolagus cuniculus
[9] = molecular target: T1, C-C chemokine receptor type 5; experiment: Antagonist activity at human CCR5 expressed in CHO cells assessed as MIP-1-alpha-induced Ca2+ mobilization; assay type: functional, cell-based
[10] = molecular target: T2, C-C chemokine receptor type 5; experiment: Antagonist activity at cynomolgus monkey CCR5 expressed in CHO cells assessed as MIP-1-alpha-induced Ca2+ mobilization; assay type: functional, cell-based
[11] = molecular target: T1, C-C chemokine receptor type 5; experiment: Antagonist activity at human CCR5 expressed in L1.2 cells assessed as MIP-1-alpha-induced Ca2+ mobilization; assay type: functional, cell-based
[12] = molecular target: Cytochrome P450 1A2 (Homo sapiens, UniProt P05177); experiment: Inhibition of CYP1A2; assay type: ADME
[13] = molecular target: Cytochrome P450 2C9 (Homo sapiens, UniProt P11712); experiment: Inhibition of CYP2C9; assay type: ADME
Chain of Cytochrome P450 2C9 (P11712 whole entry): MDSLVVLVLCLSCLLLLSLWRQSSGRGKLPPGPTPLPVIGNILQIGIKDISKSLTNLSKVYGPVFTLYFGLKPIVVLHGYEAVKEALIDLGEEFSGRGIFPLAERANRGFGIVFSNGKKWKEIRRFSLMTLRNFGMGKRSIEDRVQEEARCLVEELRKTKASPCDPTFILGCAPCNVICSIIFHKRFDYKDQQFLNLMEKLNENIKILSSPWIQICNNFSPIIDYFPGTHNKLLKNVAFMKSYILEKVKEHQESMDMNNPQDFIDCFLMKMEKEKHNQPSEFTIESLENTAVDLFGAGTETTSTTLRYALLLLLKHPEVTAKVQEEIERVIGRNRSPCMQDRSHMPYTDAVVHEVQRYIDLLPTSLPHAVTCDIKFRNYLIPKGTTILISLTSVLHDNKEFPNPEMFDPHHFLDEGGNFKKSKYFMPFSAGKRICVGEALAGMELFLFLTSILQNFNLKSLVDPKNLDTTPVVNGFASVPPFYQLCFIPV

[14] = molecular target: Cytochrome P450 2C19 (Homo sapiens, UniProt P33261); experiment: Inhibition of CYP2C19; assay type: ADME
Chain of Cytochrome P450 2C19 (P33261 whole entry): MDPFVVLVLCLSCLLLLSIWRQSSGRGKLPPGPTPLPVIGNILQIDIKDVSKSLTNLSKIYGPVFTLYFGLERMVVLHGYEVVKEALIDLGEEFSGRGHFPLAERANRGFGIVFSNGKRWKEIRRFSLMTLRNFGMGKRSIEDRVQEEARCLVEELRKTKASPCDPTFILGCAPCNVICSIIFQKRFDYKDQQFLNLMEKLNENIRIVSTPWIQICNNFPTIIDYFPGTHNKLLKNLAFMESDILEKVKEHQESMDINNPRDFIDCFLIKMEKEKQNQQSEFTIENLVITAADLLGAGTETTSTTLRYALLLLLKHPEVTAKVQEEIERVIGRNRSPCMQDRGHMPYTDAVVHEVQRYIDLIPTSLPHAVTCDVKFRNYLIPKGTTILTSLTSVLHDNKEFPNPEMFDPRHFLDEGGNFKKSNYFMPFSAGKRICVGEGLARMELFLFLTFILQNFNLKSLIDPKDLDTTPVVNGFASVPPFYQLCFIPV

[15] = molecular target: Cytochrome P450 2D6 (Homo sapiens, UniProt P10635); experiment: Inhibition of CYP2D6; assay type: ADME
[16] = molecular target: Cytochrome P450 3A4 (Homo sapiens, UniProt P08684); experiment: Inhibition of CYP3A4; assay type: ADME
Chain of Cytochrome P450 3A4 (P08684 whole entry): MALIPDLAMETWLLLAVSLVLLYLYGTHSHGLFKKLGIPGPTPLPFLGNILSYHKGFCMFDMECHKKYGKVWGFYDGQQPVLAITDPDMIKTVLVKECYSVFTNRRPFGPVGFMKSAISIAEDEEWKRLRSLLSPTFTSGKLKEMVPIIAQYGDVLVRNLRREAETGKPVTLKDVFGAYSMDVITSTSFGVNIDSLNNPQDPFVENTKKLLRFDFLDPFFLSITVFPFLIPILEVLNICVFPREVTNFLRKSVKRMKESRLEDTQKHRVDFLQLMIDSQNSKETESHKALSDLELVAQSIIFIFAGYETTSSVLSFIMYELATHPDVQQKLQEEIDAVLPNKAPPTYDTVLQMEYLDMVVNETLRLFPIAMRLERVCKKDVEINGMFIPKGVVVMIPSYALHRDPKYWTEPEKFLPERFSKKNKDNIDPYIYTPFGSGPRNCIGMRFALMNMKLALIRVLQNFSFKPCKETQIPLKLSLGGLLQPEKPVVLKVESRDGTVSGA

[17] = Dissociation constant, pKa of the compound; assay type: physicochemical
[18] = Partition coefficient, log P of the compound; assay type: physicochemical; settings: octanol/water
[19] = Lipophilicity, log D at pH 6.8; assay type: physicochemical; settings: buffer
[20] = Intrinsic clearance in human liver microsomes; assay type: ADME, Microsome
[21] = Intrinsic clearance in rat liver microsomes; assay type: ADME, Microsome
[22] = Solubility in water; assay type: physicochemical
[23] = Solubility at pH 7.4; assay type: physicochemical; settings: buffer
[24] = Permeability from apical to basolateral side of human Caco-2 cell membranes; assay type: ADME, cell-based; settings: read-out: permeability (converted)
[25] = Permeability from basolateral to apical side of human Caco-2 cell membranes; assay type: ADME, cell-based; settings: read-out: permeability (converted)
[26] = Protein binding in human plasma; assay type: ADME, cell-free
[27] = Protein binding in rat plasma; assay type: ADME, cell-free
[28] = molecular target: C-C chemokine receptor type 1 (Homo sapiens) (UniProt P32246); experiment: Inhibition of CCR1 upto 1 uM
[29] = molecular target: C-C chemokine receptor type 2 (Homo sapiens) (UniProt P41597); experiment: Inhibition of CCR2 upto 1 uM
Chain of C-C chemokine receptor type 2 (Homo sapiens) (P41597 whole entry, looked up): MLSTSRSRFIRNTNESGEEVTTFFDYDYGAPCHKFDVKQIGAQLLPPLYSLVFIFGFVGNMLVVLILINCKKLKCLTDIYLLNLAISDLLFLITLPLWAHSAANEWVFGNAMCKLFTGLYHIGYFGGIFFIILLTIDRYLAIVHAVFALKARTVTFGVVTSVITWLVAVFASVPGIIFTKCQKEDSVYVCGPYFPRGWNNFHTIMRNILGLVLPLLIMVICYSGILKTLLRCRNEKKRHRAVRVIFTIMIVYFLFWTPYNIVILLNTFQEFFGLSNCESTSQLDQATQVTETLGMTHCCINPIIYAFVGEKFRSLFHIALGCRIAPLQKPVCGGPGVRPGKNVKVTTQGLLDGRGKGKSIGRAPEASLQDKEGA

[30] = molecular target: C-C chemokine receptor type 3 (Homo sapiens) (UniProt P51677); experiment: Inhibition of CCR3 upto 1 uM
Chain of C-C chemokine receptor type 3 (Homo sapiens) (P51677 whole entry): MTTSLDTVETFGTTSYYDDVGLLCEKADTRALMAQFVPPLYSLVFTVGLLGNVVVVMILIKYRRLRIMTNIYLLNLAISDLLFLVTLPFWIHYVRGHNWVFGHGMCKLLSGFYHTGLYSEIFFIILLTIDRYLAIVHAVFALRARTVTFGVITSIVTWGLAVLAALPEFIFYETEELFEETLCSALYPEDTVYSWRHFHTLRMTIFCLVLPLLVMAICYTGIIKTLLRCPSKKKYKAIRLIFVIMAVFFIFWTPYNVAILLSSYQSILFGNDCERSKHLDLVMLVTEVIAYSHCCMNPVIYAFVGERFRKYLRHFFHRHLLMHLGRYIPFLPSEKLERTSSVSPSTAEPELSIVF

[31] = molecular target: C-C chemokine receptor type 4 (Homo sapiens) (UniProt P51679); experiment: Inhibition of CCR4 upto 1 uM
Chain of C-C chemokine receptor type 4 (Homo sapiens) (P51679 whole entry): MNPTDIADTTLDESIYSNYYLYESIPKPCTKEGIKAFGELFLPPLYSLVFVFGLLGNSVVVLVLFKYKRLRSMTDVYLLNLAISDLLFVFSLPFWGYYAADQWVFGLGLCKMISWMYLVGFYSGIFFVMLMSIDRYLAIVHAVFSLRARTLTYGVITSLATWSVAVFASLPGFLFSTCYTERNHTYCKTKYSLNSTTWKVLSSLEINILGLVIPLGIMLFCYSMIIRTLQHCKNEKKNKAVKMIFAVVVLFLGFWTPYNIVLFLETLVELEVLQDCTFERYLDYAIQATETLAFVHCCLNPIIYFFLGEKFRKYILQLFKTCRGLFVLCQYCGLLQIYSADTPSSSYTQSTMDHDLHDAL

[32] = molecular target: C-C chemokine receptor type 6 (Homo sapiens) (UniProt P51684); experiment: Inhibition of CCR6 upto 1 uM
[33] = molecular target: C-C chemokine receptor type 7 (Homo sapiens) (UniProt P32248); experiment: Inhibition of CCR7 upto 1 uM
[34] = molecular target: C-X-C chemokine receptor type 1 (Homo sapiens) (UniProt P25024); experiment: Inhibition of CXCR1 upto 1 uM
[35] = molecular target: C-X-C chemokine receptor type 2 (Homo sapiens) (UniProt P25025); experiment: Inhibition of CXCR2 upto 1 uM
[36] = molecular target: C-X-C chemokine receptor type 3 (Homo sapiens) (UniProt P49682); experiment: Inhibition of CXCR3 upto 1 uM
Chain of C-X-C chemokine receptor type 3 (Homo sapiens) (P49682 whole entry): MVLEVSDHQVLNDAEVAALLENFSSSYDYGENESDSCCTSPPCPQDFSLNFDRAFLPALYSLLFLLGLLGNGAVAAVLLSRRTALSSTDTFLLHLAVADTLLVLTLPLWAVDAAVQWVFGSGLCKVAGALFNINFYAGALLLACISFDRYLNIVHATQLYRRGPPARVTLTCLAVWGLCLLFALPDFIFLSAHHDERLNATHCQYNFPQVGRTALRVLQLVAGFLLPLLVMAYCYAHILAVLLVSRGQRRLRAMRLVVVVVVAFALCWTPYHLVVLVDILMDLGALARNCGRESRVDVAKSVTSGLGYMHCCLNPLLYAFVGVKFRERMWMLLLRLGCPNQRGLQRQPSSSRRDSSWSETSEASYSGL

[37] = molecular target: C-X-C chemokine receptor type 4 (Homo sapiens) (UniProt P61073); experiment: Inhibition of CXCR4 upto 1 uM
[38] = molecular target: C-X-C chemokine receptor type 6 (Homo sapiens) (UniProt O00574); experiment: Inhibition of CXCR6 upto 1 uM
[39] = Inhibition of muscarinic acetylcholine receptor at 1 uM
[40] = AUC in rat at 1 mg/kg, po; assay type: ADME, organism-based; design: dose 1 mg/kg, route oral; settings: plasma
[41] = Cmax in rat at 1 mg/kg, po; assay type: ADME, organism-based; design: dose 1 mg/kg, route oral; settings: in vivo
[42] = Tmax in po dosed rat; assay type: ADME, organism-based; settings: in vivo
[43] = Half life in po dosed rat; assay type: ADME, organism-based; settings: in vivo
[44] = Oral bioavailability in rat; assay type: ADME, organism-based; settings: in vivo
[45] = AUC in cynomolgus monkey at 1 mg/kg, po; assay type: ADME, organism-based, Macaca fascicularis; design: dose 1 mg/kg, route oral; settings: plasma
[46] = Cmax in cynomolgus monkey at 1 mg/kg, po; assay type: ADME, organism-based, Macaca fascicularis; design: dose 1 mg/kg, route oral; settings: in vivo
[47] = Tmax in po dosed cynomolgus monkey; assay type: ADME, organism-based, Macaca fascicularis; settings: in vivo
[48] = Half life in po dosed cynomolgus monkey; assay type: ADME, organism-based, Macaca fascicularis; settings: in vivo
[49] = Oral bioavailability in cynomolgus monkey; assay type: ADME, organism-based, Macaca fascicularis; settings: in vivo
[50] = AUC in dog at 1 mg/kg, po; assay type: ADME, organism-based, Canis lupus familiaris; design: dose 1 mg/kg, route oral; settings: plasma
[51] = Cmax in dog at 1 mg/kg, po; assay type: ADME, organism-based, Canis lupus familiaris; design: dose 1 mg/kg, route oral; settings: in vivo
[52] = Tmax in po dosed dog; assay type: ADME, organism-based, Canis lupus familiaris; settings: in vivo
[53] = Half life in po dosed dog; assay type: ADME, organism-based, Canis lupus familiaris; settings: in vivo
[54] = Oral bioavailability in dog; assay type: ADME, organism-based, Canis lupus familiaris; settings: in vivo
[55] = Mean residence time in cynomolgus monkey; assay type: ADME, organism-based, Macaca fascicularis; settings: in vivo
[56] = Mean residence time in dog; assay type: ADME, organism-based, Canis lupus familiaris; settings: in vivo
[57] = test system: Cynomolgus monkey; experiment: Prolongation of graft survival in cynomolgus monkey kidney transplantation model at 20 mg/kg, sc bid; assay type: functional, Macaca fascicularis; settings: route subcutaneous
[58] = test system: Cynomolgus monkey; experiment: Prolongation of graft survival in cynomolgus monkey kidney transplantation model at 20 mg/kg, sc bid in presence of cyclosporine A; assay type: functional, Macaca fascicularis; settings: route subcutaneous
[59] = test system: Cynomolgus monkey; experiment: Prolongation of graft survival in cynomolgus monkey kidney transplantation model at 40 mg/kg, po qd in presence of cyclosporine A; assay type: functional, Macaca fascicularis
[60] = molecular target: C-C chemokine receptor type 5 (Mus musculus) (UniProt P51682); experiment: Binding affinity to mouse CCR5

With `Cc1cccc(C)c1C(=O)N1CCC(C)(N2CCC(N(c3ccccc3)c3ccccc3)CC2)CC1` the Activity [1] was “Non-toxic” and the IC50 [2] was 150 nM.
For `Cc1cccc(C)c1C(=O)N1CCC(C)(N2CCC(N(Cc3ccccc3)c3ccccc3)CC2)CC1`, the IC50 [2] was 670 nM and the Activity [3] was “Non-toxic”.
In the case of `Cc1nc[n+]([O-])c(C)c1C(=O)N1CCC(C)(N2CCC(N(c3ccccc3)c3ccccc3)CC2)CC1`, the IC50 [2] is reported as 1200 nM and the Activity [3] is reported as “Non-toxic”.
In the case of `Cc1cc[n+]([O-])c(C)c1C(=O)N1CCC(C)(N2CCC(N(Cc3cccc(C#N)c3)c3ccccc3)CC2)CC1`, the Activity [1] is reported as “Non-toxic”.
For `Cc1nc(CN(c2ccccc2)C2CCN(C3(C)CCN(C(=O)c4c(C)cc[n+]([O-])c4C)CC3)CC2)cs1`, the Activity [4] was “Non-toxic”, the IC50 [2] was 12200 nM and the IC50 [5] was 1.7 nM. For the same compound, the IC50 [6] was 107 nM.
With `Cc1cccc(C)c1C(=O)N1CCC(C)(N2CCC(N(c3ccccc3)c3ccncc3)CC2)CC1` the Activity [7] was “Non-toxic”, the IC50 [5] was 2 nM and the IC50 [6] was 9.8 nM.
In the case of `CC1(N2CCC(N(c3ccccc3)c3cccnc3)CC2)CCN(C(=O)c2c(Cl)cncc2Cl)CC1`, the Activity [7] is reported as “Non-toxic”, the IC50 [5] is reported as 0.8 nM and the IC50 [6] is reported as 3.2 nM.
In the case of `Cc1cccnc1C(=O)N1CCC(C)(N2CCC(N(c3ccccc3)c3cccnc3)CC2)CC1`, the Activity [7] is reported as “Non-toxic”, the IC50 [5] is reported as 6.5 nM and the IC50 [6] is reported as 39 nM.
In the case of `CC1(N2CCC(N(c3ccccc3)c3cccnc3)CC2)CCN(C(=O)c2c(Cl)c[n+]([O-])cc2Cl)CC1`, the Activity [1] is reported as “Non-toxic”, the IC50 [5] is reported as 1 nM and the IC50 [6] is reported as 4.2 nM.
With `Cc1cccc(C)c1C(=O)N1CCC(C)(N2CCC(N(c3ccccc3)c3cccnc3)CC2)CC1` the Activity [7] was “Non-toxic”, the IC50 [5] was 0.5 nM and the IC50 [6] was 1.1 nM.
For `Cc1cc[n+]([O-])c(C)c1C(=O)N1CCC(C)(N2CCC(N(c3ccccc3)c3cccnc3)CC2)CC1`, the Activity [8] was “Non-toxic”, the IC50 [9] was 43.6 nM and the IC50 [10] was 64 nM. The IC50 [11] was 16.2 nM, the IC50 [12] was > 10000 nM and the IC50 [13] was > 10000 nM. The IC50 [14] was > 10000 nM, the IC50 [15] was > 10000 nM and the IC50 [16] was 5300 nM. It also gave a pKa [17] of 5.5, a logP [18] of 2.2 and a logD [19] of 0.8. The microsomal CLint [20] was < 15 µL/min/mg, the microsomal CLint [21] was < 15 µL/min/mg and the solubility [22] was 1000 µg/mL (≈ 2000 µM). The solubility [23] was > 12500 µg/mL, the Papp A→B [24] was 0.667 ×10⁻⁶ cm/s and the Papp B→A [25] was 10.8 ×10⁻⁶ cm/s. For the same compound, the fraction unbound [26] was 0.62, the fraction unbound [27] was 0.48 and the Activity [28] was “inactive”. For the same compound, the Activity [29] was “inactive”, the Activity [30] was “inactive” and the Activity [31] was “inactive”. For the same compound, the Activity [32] was “inactive”, the Activity [33] was “inactive” and the Activity [34] was “inactive”. The Activity [35] was “inactive”, the Activity [36] was “inactive” and the Activity [37] was “inactive”. The Activity [38] was “inactive”, the Activity [39] was “inactive” and the AUC [40] was 41 ng·h/mL. The Cmax [41] was 5.8 ng/mL, the Tmax [42] was 0.4 h and the half-life [43] was 8.1 h. The bioavailability [44] was 22%, the AUC [45] was 503 ng·h/mL and the Cmax [46] was 93 ng/mL. For the same compound, the Tmax [47] was 0.5 h, the half-life [48] was 6.3 h and the bioavailability [49] was 43%. It also gave an AUC [50] of 278 ng·h/mL, a Cmax [51] of 84 ng/mL and a Tmax [52] of 0.6 h. It also gave a half-life [53] of 7.9 h, a bioavailability [54] of 56% and an MRT [55] of 6 h. For the same compound, the MRT [56] was 8 h, the Activity [57] was 6 days and the Activity [58] was >100 days. The Activity [59] was 39 days, the Activity [60] was “inactive” and the IC50 [5] was 5.1 nM. The IC50 [6] was 8.1 nM.
For `Cc1ccnc(C)c1C(=O)N1CCC(C)(N2CCC(N(c3ccccc3)c3cccnc3)CC2)CC1`, the Activity [1] was “Non-toxic”, the IC50 [5] was 0.9 nM and the IC50 [6] was 0.8 nM.
For `Cc1cc[n+]([O-])c(C)c1C(=O)N1CCC(C)(N2CCC(N(c3ccccc3)c3ccccc3)CC2)CC1`, the Activity [7] was “Non-toxic” and the IC50 [6] was 3.4 nM.
With `Cc1ccnc(C)c1C(=O)N1CCC(C)(N2CCC(N(c3ccccc3)c3ccccc3)CC2)CC1` the Activity [7] was “Non-toxic” and the IC50 [2] was 570 nM.
With `Cc1cc[n+]([O-])c(C)c1C(=O)N1CCC(C)(N2CCC(N(Cc3ccccc3)c3ccccc3)CC2)CC1` the Activity [7] was “Non-toxic”.
In the case of `Cc1cc[n+]([O-])c(C)c1C(=O)N1CCC(C)(N2CCC(N(c3ccccc3)c3ccccn3)CC2)CC1`, the Activity [1] is reported as “Non-toxic”, the IC50 [5] is reported as 1.8 nM and the IC50 [6] is reported as 12 nM.
For `CC1(N2CCC(N(c3ccccc3)c3cccnc3)CC2)CCN(C(=O)c2cccc3ccccc23)CC1`, the Activity [1] was “Non-toxic”, the IC50 [5] was 1.3 nM and the IC50 [6] was 3.6 nM.
For `Cc1ncnc(C)c1C(=O)N1CCC(C)(N2CCC(N(c3ccccc3)c3ccccc3)CC2)CC1`, the Activity [7] was “Non-toxic”.
